Assay results: patent US7968556B2, “Heteroaryl compounds, compositions thereof, and methods of treatment therewith” (Signal Pharmaceuticals, LLC, priority 2006, dated 2011)

Row | SMILES | melting point
1 | COc1ccccc1-n1c(=O)[nH]c2c(C(N)=O)nc(-c3cccc(C#N)c3)nc21 [Compound 55, 2-(3-Cyanophenyl)-9-(2-methoxyphenyl)-8-oxo-8,9-dihydro-7H-purine-6-carboxamide] | 316 to 318 °C
2 | COc1ccc(F)c(-n2c(=O)[nH]c3c(C(N)=O)nc(-c4cccc(O)c4)nc32)c1 [Compound 149, 9-(2-Fluoro-5-methoxyphenyl)-2-(3-hydroxyphenyl)-8-oxo-8,9-dihydro-7H-purine-6-carboxamide] | > 260 °C
3 | COc1ccccc1-n1cnc2c(C(N)=O)nc(-c3ccccc3O)nc21 [Compound 70, 2-(2-Hydroxyphenyl)-9-(2-methoxyphenyl)purine-6-carboxamide] | 278 to 280 °C
4 | COc1ccccc1-n1cnc2c(C(N)=O)nc(Nc3cccc(O)c3)nc21 [Compound 51, 2-(3-Hydroxyphenylamino)-9-(2-methoxyphenyl)-9H-purine-6-carboxamide] | 155 to 157 °C
5 | CC(C)c1ccccc1-n1c(=O)[nH]c2c(C(N)=O)nc(-c3ccc(-n4ccnc4)cc3)nc21 [Compound 131, 2-(4-(1H-Imidazol-1-yl)phenyl)-9-(2-isopropylphenyl)-8-oxo-8,9-dihydro-7H-purine-6-carboxamide] | 232 °C
6 | COc1ccccc1-n1c(=O)[nH]c2c(C(N)=O)nc(N[C@H]3CCNC3)nc21 [Compound 106, (S)-9-(2-Methoxyphenyl)-8-oxo-2-(pyrrolidin-3-ylamino)-8,9-dihydro-7H-purine-6-carboxamide] | > 400 °C
7 | NC(=O)c1nc(-c2ccc(O)nc2)nc2c1[nH]c(=O)n2-c1ccccc1C(F)(F)F [Compound 100, 2-(6-Hydroxypyridin-3-yl)-8-oxo-9-(2-(trifluoromethyl)phenyl)-8,9-dihydro-7H-purine-6-carboxamide] | 348 to 352 °C (dec.)
8 | NC(=O)c1nc(-c2cnc3nc[nH]c3c2)nc2c1[nH]c(=O)n2C1CCCCC1 [Compound 150, 9-Cyclohexyl-2-(1H-imidazo[4,5-b]pyridin-6-yl)-8-oxo-8,9-dihydro-7H-purine-6-carboxamide] | 320 °C (dec.)
9 | NC(=O)c1nc(-c2cccc(O)c2)nc2c1[nH]c(=O)n2-c1cccc2[nH]ccc12 [Compound 147, 2-(3-Hydroxyphenyl)-9-(1H-indol-4-yl)-8-oxo-8,9-dihydro-7H-purine-6-carboxamide] | > 260 °C
10 | NC(=O)c1nc(-c2cncc(Cl)c2)nc2c1[nH]c(=O)n2-c1ccccc1C(F)(F)F [Compound 103, 2-(5-Chloropyridin-3-yl)-8-oxo-9-(2-(trifluoromethyl)phenyl)-8,9-dihydro-7H-purine-6-carboxamide] | 230 to 232 °C
11 | NC(=O)c1nc(-c2cnc3nc[nH]c3c2)nc2c1[nH]c(=O)n2-c1ccccc1C(F)(F)F [Compound 137, 2-(1H-Imidazo[4,5-b]pyridin-6-yl)-8-oxo-9-(2-(trifluoromethyl)phenyl)-8,9-dihydro-7H-purine-6-carboxamide] | 320 °C
12 | NC(=O)c1nc(-c2ccc(-c3nc[nH]n3)cc2)nc2c1[nH]c(=O)n2C1CCCCC1 [Compound 146, 2-(4-(1H-1,2,4-Triazol-3-yl)phenyl)-9-cyclohexyl-8-oxo-8,9-dihydro-7H-purine-6-carboxamide] | 375 °C (dec.)

Now from value to compound:

Row | melting point | SMILES
13 | 160 to 165 °C | COc1ccccc1-n1c(=O)[nH]c2c(C(N)=O)nc(NC[C@@H]3CCCN3)nc21 [Compound 114, (S)-9-(2-Methoxyphenyl)-8-oxo-2-(pyrrolidin-2-ylmethylamino)-8,9-dihydro-7H-purine-6-carboxamide]
14 | 338 to 339 °C | COc1ccccc1-n1c(=O)[nH]c2c(C(N)=O)nc(-c3cccc(C(N)=O)c3)nc21 [Compound 68, 2-(3-Carbamoylphenyl)-9-(2-methoxyphenyl)-8-oxo-8,9-dihydro-7H-purine-6-carbox amide]
15 | 361 to 363 °C | NC(=O)c1nc(-c2cccc(O)c2)nc2c1[nH]c(=O)n2C1CCOCC1 [Compound 151, 2-(3-Hydroxyphenyl)-8-oxo-9-(tetrahydro-2H-pyran-4-yl)-8,9-dihydro-7H-purine-6-carboxamide]
16 | 355 to 357 °C | CO[C@H]1CC[C@H](n2c(=O)[nH]c3c(C(N)=O)nc(-c4cccc(O)c4)nc32)CC1 [Compound 143, 9-(trans-4-Methoxycyclohexyl)-2-(3-hydroxyphenyl)-8-oxo-8,9-dihydro-7H-purine-6-carboxamide]
17 | 237 to 239 °C | COc1ccccc1-n1c(=O)[nH]c2c(C(N)=O)nc(Nc3cccc(CO)c3)nc21 [Compound 123, 2-(3-(Hydroxymethyl)phenylamino)-9-(2-methoxyphenyl)-8-oxo-8,9-dihydro-7H-purine-6-carboxamide]
18 | 155 to 157 °C | COc1ccccc1-n1c(=O)[nH]c2c(C(N)=O)nc(NC[C@H]3CCCN3)nc21 [Compound 113, (R)-9-(2-Methoxyphenyl)-8-oxo-2-(pyrrolidin-2-ylmethylamino)-8,9-dihydro-7H-purine-6-carboxamide]
19 | 280 °C (dec.) | NC(=O)c1nc(-c2ccc3nc[nH]c3c2)nc2c1[nH]c(=O)n2C1CCCCC1 [Compound 156, 2-(1H-benzo[d]imidazol-6-yl)-9-cyclohexyl-8-oxo-8,9-dihydro-7H-purine-6-carboxamide]
20 | 275 °C (dec.) | CC(C)c1ccccc1-n1c(=O)[nH]c2c(C(N)=O)nc(-c3ccc4nc[nH]c4c3)nc21 [Compound 127, 2-(1H-Benzo[d]imidazol-6-yl)-9-(2-isopropylphenyl)-8-oxo-8,9-dihydro-7H-purine-6-carboxamide]
21 | > 260 °C | COc1cccc(-n2c(=O)[nH]c3c(C(N)=O)nc(-c4cccc(O)c4)nc32)c1F [Compound 148, 9-(2-Fluoro-3-methoxyphenyl)-2-(3-hydroxyphenyl)-8-oxo-8,9-dihydro-7H-purine-6-carboxamide]
22 | 331 to 335 °C | NC(=O)c1nc(-c2cccnc2O)nc2c1[nH]c(=O)n2-c1ccccc1C(F)(F)F [Compound 129, 2-(2-Hydroxypyridin-3-yl)-8-oxo-9-(2-(trifluoromethyl)phenyl)-8,9-dihydro-7H-purine-6-carboxamide]
23 | 353 to 355 °C | NC(=O)c1nc(-c2cccc(O)c2)nc2c1[nH]c(=O)n2[C@@H]1CCOC1 [Compound 162, (R)-2-(3-Hydroxyphenyl)-8-oxo-9-(tetrahydrofuran-3-yl)-8,9-dihydro-7H-purine-6-carboxamide]
24 | 363 to 365 °C | NC(=O)c1nc(-c2cccc(O)c2)nc2c1[nH]c(=O)n2-c1ccccc1C(F)(F)F [Compound 58, 2-(3-Hydroxyphenyl)-8-oxo-9-(2-(trifluoromethyl)phenyl)-8,9-dihydro-7H-purine-6-carboxamide]
25 | 331 to 333 °C | NC(=O)c1nc(-c2cccnc2)nc2c1[nH]c(=O)n2[C@H]1CC[C@H](O)CC1 [Compound 48, 9-(trans-4-Hydroxycyclohexyl)-8-oxo-2-(pyridin-3-yl)-8,9-dihydro-7H-purine-6-carboxamide]
26 | 354 to 356 °C | NC(=O)c1nc(-c2cccc(O)c2)nc2c1[nH]c(=O)n2[C@H]1CCOC1 [Compound 163, (S)-2-(3-Hydroxyphenyl)-8-oxo-9-(tetrahydrofuran-3-yl)-8,9-dihydro-7H-purine-6-carboxamide]
